# Where a SMILES comes first, the peptide text is derived from it. [ ]: non-standard residue; d: D form. dLac(3-vinyl) = C=CC[C@@H](O)C(=O)O; dHica = CC(C)C[C@@H](O)C(=O)O; NMeV = CN[C@H](C(=O)O)C(C)C; NMeA = CN[C@@H](C)C(=O)O; βAla = NCCC(=O)O
# System: Hepatitis B virus
# Test: Antiviral activity against Hepatitis B virus infected in human Hep3B cells assessed as surface antigen production
# Type: functional, organism-based, Hep 3B2
row,Compound,IC50 [µg/mL]
1,CC[C@H](C)[C@@H]1NC(=O)[C@@H]2CCCN2C(=O)[C@@H](CC(C)C)OC(=O)CCNC(=O)[C@H](C)N(C)C(=O)[C@H](C(C)C)N(C)C1=O (cyclo(I[NMeV][NMeA][βAla][dHica]P)),0.2
2,C=CC[C@H]1OC(=O)CCNC(=O)[C@H](C)N(C)C(=O)[C@H](C(C)C)N(C)C(=O)[C@H]([C@@H](C)CC)NC(=O)[C@@H]2CCCN2C1=O (cyclo(I[NMeV][NMeA][βAla][dLac(3-vinyl)]P)),0.1
3,C=CC[C@H]1OC(=O)CCNC(=O)[C@H](C)N(C)C(=O)[C@H](C(C)C)NC(=O)[C@H]([C@@H](C)CC)NC(=O)[C@@H]2CCCN2C1=O [DESMETHYLDESTRUXIN A],1.2
4,CC(C)C[C@H]1OC(=O)CCNC(=O)[C@H](C)N(C)C(=O)[C@H](C(C)C)NC(=O)[C@H](C(C)C)NC(=O)[C@@H]2CCCN2C1=O [DESMETHYLDESTRUXIN B2] (cyclo([NMeA][βAla][dHica]PVV)),1.5
5,CC[C@H](C)[C@@H]1NC(=O)[C@@H]2CCCN2C(=O)[C@@H](CC(C)C)OC(=O)CCNC(=O)[C@H](C)N(C)C(=O)[C@H](C(C)C)NC1=O [DESMETHYLDESTRUXIN B] (cyclo(IV[NMeA][βAla][dHica]P)),0.6
6,C=CC[C@H]1OC(=O)CCNC(=O)[C@H](C)N(C)C(=O)[C@H](C(C)C)N(C)C(=O)[C@H](C(C)C)NC(=O)[C@@H]2CCCN2C1=O [DESTRUXIN A2] (cyclo([NMeA][βAla][dLac(3-vinyl)]PV[NMeV])),0.4
7,CC(C)C[C@H]1OC(=O)CCNC(=O)[C@H](C)N(C)C(=O)[C@H](C(C)C)N(C)C(=O)[C@H](C(C)C)NC(=O)[C@@H]2CCCN2C1=O [DESTRUXIN B2] (cyclo([NMeA][βAla][dHica]PV[NMeV])),0.3

# From ChEMBL document CHEMBL1159235, “The novel desmethyldestruxin B2, from Metarhizium anisopliae, that suppresses hepatitis B virus surface antigen production in human hepatoma cells” (J Nat Prod, 1995)
